As usually defined, the IC50 is the concentration needed to halve the response being measured.

Assay [1] addresses T1, IgE-Tb binding to sFcεR1α-Y131A-AF488 (Homo sapiens, UniProt P01854, N146Q/N252Q).
T1 construct: fused on or other part: LanthaScreen amine-reactive terbium chelate label on IgE-Fc (about 4 Tb per IgE-Fc)
Briefly: In vitro FRET assay of IgE-Tb binding to sFcεR1α receptor (protocol for examples 9 and 10, 18 hours incubation). Conditions: examples 9 and 10: compound incubated 30 minutes with IgE-Tb before sFcεR1α-Y131A-AF488; incubated 18 hours at room temperature; read-out: FRET IC50 range. The protocol:
In vitro Biochemical Assay:
Protocol for preparation of IgE-Tb reagent
86 nmoles of IgE-Fc(N265Q, N371Q) (Young et al., 1995) at 172 μM in 100 mM NaHCO3, pH 9.5 was added to 1 mg of LanthaScreen™ Amine Reactive Tb Chelate (ThermoFisher catalogue number PV3583) and incubated for 16 hours at 20° C. The material was then buffer exchanged into Phosphate Buffered Saline (being, 137 mM NaCl, 2.7 mM KCl, 10 mM Na2HPO4, 1.8 mM K2HPO4, pH 7.4) and the material quantified and the degree of Tb conjugation determined by measuring the absorption at 280 nm and 343 nm.
(§1) The integrity of the conjugated material was determined by analytical size exclusion chromatography on a 5200 HR 10×300 column (GE Healthcare). […]
175 nmoles of protein was added to 1 mg of Alexa Fluor™ 488 hydrazide (Invitrogen) and incubated for 16 hours at 22° C. […] The protein was buffer exchanged into Phosphate Buffered Saline (being, 137 mM NaCl, 2.7 mM KCl, 10 mM Na2HPO4, 1.8 mM K2HPO4, pH 7.4) and the material quantified and the degree of Alexa Fluor™ 488 conjugation determined by measuring the absorption at 280 nm and 495 nm.
as §1
The aim was to measure binding of IgE-Tb to receptor, and the inhibition thereof by compounds, using an in vitro Fluorescence Resonance Energy Transfer (FRET) Assay. […]

For assay [2], the target named is T2, IgE-Tb binding to soluble IgE receptor FcεRIα-Y131A-AF488 (Homo sapiens, UniProt P0DOX4, N265Q/N371Q).
T2 construct: 86 nmoles of IgE-Fc(N265Q, N371Q) (Young et al., 1995)
Briefly: In vitro FRET assay of IgE-Tb binding to FcεRIα receptor (protocol for most examples, 2 hours incubation). Conditions: 5 nM IgE-Tb, 25 nM FcεRIα-Y131A-AF488; incubated 2 hours at room temperature; read-out: FRET IC50 range. The protocol:
In vitro Biochemical Assay: Protocol for preparation of IgE-Tb reagent 86 nmoles of […]) (Young et al., 1995) at 172 μM in 100 mM NaHCO3, pH 9.5 was added to 1 mg of LanthaScreenTM Amine Reactive Tb Chelate (ThermoFisher catalogue number PV3583) and incubated for 16 hours at 20° C. The material was then buffer exchanged into Phosphate Buffered Saline (being, 137 mM NaCl, 2.7 mM KCl, 10 mM Na2HPO4, 1.8 mM K2HPO4, pH 7.4) and the material quantified and the degree of Tb conjugation determined by measuring the absorption at 280 nm and 343 nm. The integrity of the conjugated material was determined by analytical size exclusion chromatography on a 5200 HR 10×300 column (GE Healthcare). Typical conjugation ratios were 4:1 Tb:IgE-Fc. • Young R J., Owens, […]., Chan C M W., Shi J., Hide […]., Henry A J., Sutton B J., and Gould H J (1995) Protein Engineering 8:193-199 Protocol for preparation of […] reagent […] Oxidation was quenched with the addition of 40 μl of ethanediol and incubation for 60 minutes at 22° C. The protein was buffer exchanged in to conjugation buffer (50 mM NaHCO3, 150 mM NaCl, pH 9.5) and concentrated to 750 μM. 175 nmoles of protein was added to 1 mg of Alexa FluorTM 488 hydrazide (Invitrogen) and incubated for 16 hours at 22° C. […] The protein was buffer exchanged into Phosphate Buffered Saline (being, 137 mM NaCl, 2.7 mM KCl, 10 mM Na2HPO4, 1.8 mM K2HPO4, pH 7.4) and the material quantified and the degree of Alexa FluorTM 488 conjugation determined by measuring the absorption at 280 nm and 495 nm. The integrity of the conjugated material was determined by analytical size exclusion chromatography on a 5200 HR 10×300 column (GE Healthcare). Typical conjugation ratios were 2:1 Alexa FluorTM488: sFcεR1α • Cook J P D., Henry […]., Owens R J., Sutton B J., and Gould H J (1997) Biochemistry 36:15579-15588 The aim was to measure binding of IgE-Tb to receptor, and the inhibition thereof by compounds, using an in vitro Fluorescence Resonance Energy Transfer (FRET) Assay. Reagents FRET reagents used were IgE labelled with Terbium (FRET donor), and soluble IgE receptor FcεRIα with a Y131A mutation, labelled with Alexa FluorTM 488 (FRET acceptor). Unlabelled FcεRIα was also used to generate a background control. The assay buffer consisted of 20 mM Tris pH7.2, 150 mM NaCl, and 0.002% Tween, 1% DMSO. Assay Reaction For most of the examples the assay was conducted according to the following: Each assay reaction was conducted in a volume of 25 μl in a 384-well half-volume plate. 10 point compound serial dilutions (3-fold) were generated in DMSO at a concentration of ×50 that of the final assay concentration (FAC). Compound solutions were then prepared by IgE-Tb diluting 10-fold in assay buffer. For the assay, 5 μl of diluted compound was added to 10 μl of IgE-Tb, followed by addition of 10111 FcεRIα-Y131A-AF488. FRET reagents FACs were 5 nM IgE-Tb, 25 nM FcεRIα-Y131A-AF488. Usually the top FAC of compound in the assay was 10 μM. The final DMSO concentration was 2%. The minimum signal (MIN) was measured by adding 5 μl unlabelled FcεRIα at 1 μM (FAC=200 nM) to the FRET reagents. The maximum FRET signal (MAX) was measured in wells containing FRET reagents but no compound. The assay was incubated for 2 hours at room temperature, protected from light and evaporation, and with gentle agitation. FRET Measurement Measurement of FRET for each well was carried out by exciting at 330 nm and measuring emission at 495/520 nm using an Envision plate reader (Perkin Elmer). FRET ratio was calculated as follows: Emission at 520/Emission at 495×1000. The FRET ratio was used for the data analysis. Data Analysis Z' was calculated as follows (σ=standard deviation and μ=mean): 1-((3×σMAX)+(3×σMIN))/(μMAX-/μMIN) Z' above 0.5 was considered a good assay. Background signal (MIN) was subtracted from all wells. Using the background subtracted values, the percent inhibition by compound in each test-well was calculated as follows: 100-Test-well FRET ratio/MAX FRET ratio×100. […]

T2 sequence (P0DOX4 224-547 N265Q/N371Q limits assumed): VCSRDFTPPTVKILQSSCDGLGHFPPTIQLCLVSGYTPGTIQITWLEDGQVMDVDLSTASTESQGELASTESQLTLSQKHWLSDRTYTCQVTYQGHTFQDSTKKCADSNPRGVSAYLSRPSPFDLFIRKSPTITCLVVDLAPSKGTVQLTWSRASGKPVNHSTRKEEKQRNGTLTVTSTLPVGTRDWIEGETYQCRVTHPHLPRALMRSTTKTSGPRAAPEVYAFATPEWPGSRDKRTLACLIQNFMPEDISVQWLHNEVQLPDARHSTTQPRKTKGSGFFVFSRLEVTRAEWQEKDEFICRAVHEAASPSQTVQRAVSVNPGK
T1 sequence (P01854 whole entry N146Q/N252Q, the tested form may be a part): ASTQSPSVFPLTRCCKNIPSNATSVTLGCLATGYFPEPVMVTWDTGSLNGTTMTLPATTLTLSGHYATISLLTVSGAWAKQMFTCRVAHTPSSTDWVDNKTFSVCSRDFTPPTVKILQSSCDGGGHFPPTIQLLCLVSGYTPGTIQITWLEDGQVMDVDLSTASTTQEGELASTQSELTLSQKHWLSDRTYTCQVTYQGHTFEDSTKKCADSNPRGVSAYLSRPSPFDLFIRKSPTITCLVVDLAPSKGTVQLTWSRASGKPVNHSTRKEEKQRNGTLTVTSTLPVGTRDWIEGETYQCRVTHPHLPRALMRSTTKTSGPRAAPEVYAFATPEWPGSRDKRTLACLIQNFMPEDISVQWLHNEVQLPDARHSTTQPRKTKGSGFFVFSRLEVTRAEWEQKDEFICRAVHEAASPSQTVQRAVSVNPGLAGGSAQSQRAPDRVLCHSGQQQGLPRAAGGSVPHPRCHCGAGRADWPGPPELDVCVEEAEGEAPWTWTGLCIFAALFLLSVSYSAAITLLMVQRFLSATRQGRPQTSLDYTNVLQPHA

Consider `CC(C)CNS(=O)(=O)c1c2c(cc3oc(C4CC4)nc13)CCC(n1cnnc1Nc1cc(C(F)F)nn1C)C2` (stereo not shown) [Example 9, 2-cyclopropyl-6-[3-[[5-(difluoromethyl)-2-methylpyrazol-3-yl]amino]-1,2,4-triazol-4-yl]-N-(2-methylpropyl)-5,6,7,8-tetrahydrobenzo[f][1,3]benzoxazole-4-sulfonamide], for which, in assay [1], the IC50 was 0.05 to 0.1 µM. In the case of `CC(C)CNS(=O)(=O)c1c2c(cc3c1NC(C1CC1)=NO3)CCCC2` [Example 10, 3-cyclopropyl-N-isobutyl-6,7,8,9-tetrahydro-4H-benzo[g][1,2,4]benzoxadiazine-5-sulfonamide], the IC50 in assay [1] lay in the range of 0.05 to 0.1 µM.

On to `Cc1cc(Nc2nncn2C2CCc3c(cc4cnc(C5CC5)cc4c3S(=O)(=O)NCC(C)(C)F)C2)n(C)n1` (stereo not shown) [Example 23, 3-cyclopropyl-8-[3-[(2,5-dimethylpyrazol-3-yl)amino]-1,2,4-triazol-4-yl]-N-(2-fluoro-2-methylpropyl)-6,7,8,9-tetrahydrobenzo[g]isoquinoline-5-sulfonamide], for which, in assay [2], the IC50 was in the range of 0.1 to 2 µM.

For the molecule `Cc1cc(-n2cnnc2NC2CCc3c(cc4cnc(C5CC5)cc4c3S(=O)(=O)NCC(C)(C)F)C2)n(C)n1` (stereo not shown) [Example 24, 3-cyclopropyl-8-[[4-(2,5-dimethylpyrazol-3-yl)-1,2,4-triazol-3-yl]amino]-N-(2-fluoro-2-methyl-propyl)-6,7,8,9-tetrahydrobenzo[g]isoquinoline-5-sulfonamide formic acid], the IC50 in assay [2] lay within 0.1 to 2 µM.

Values taken from patent US12410161B2, “Tetrahydrobenzo-quinoline sulfonamides derivative compounds” (UCB Biopharma SRL, priority 2019, dated 2025).
